# PubChem BioAssay (NCI)
#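 Values below derive from 48-hour exposures of cells grown in 96-well plates, with endpoints linearly interpolated between the two concentrations bracketing the appropriate inhibition level. GI50 marks 50% less growth. TGI: total growth inhibition.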
# Tests used:
# Assay in all cases: NCI-60 cell line screen, 48 h
# 786-0 renal = tested on: 786-0 renal
# A498 renal = tested on: A498 renal
# A549 NSCLC = tested on: A549 NSCLC
# ACHN renal = tested on: ACHN renal
# CAKI-1 renal = tested on: CAKI-1 renal
# CCRF-CEM leukemia = tested on: CCRF-CEM leukemia
# COLO 205 colon = tested on: COLO 205 colon
# DLD-1 colon = tested on: DLD-1 colon
# DMS 114 small cell lung = tested on: DMS 114 small cell lung
# DMS 273 small cell lung = tested on: DMS 273 small cell lung
# EKVX NSCLC = tested on: EKVX NSCLC
# HCC-2998 colon = tested on: HCC-2998 colon
# HCT-15 colon = tested on: HCT-15 colon
# HL-60(TB) leukemia = tested on: HL-60(TB) leukemia
# HOP-18 NSCLC = tested on: HOP-18 NSCLC
# HOP-62 NSCLC = tested on: HOP-62 NSCLC
# HT29 colon = tested on: HT29 colon
# IGROV1 ovarian = tested on: IGROV1 ovarian
# K-562 leukemia = tested on: K-562 leukemia
# KM12 colon = tested on: KM12 colon
# KM20L2 colon = tested on: KM20L2 colon
# LOX IMVI melanoma = tested on: LOX IMVI melanoma
# LXFL 529 NSCLC = tested on: LXFL 529 NSCLC
# M14 melanoma = tested on: M14 melanoma
# M19-MEL melanoma = tested on: M19-MEL melanoma
# MALME-3M melanoma = tested on: MALME-3M melanoma
# MOLT-4 leukemia = tested on: MOLT-4 leukemia
# NCI-H23 lung = tested on: NCI-H23 lung
# NCI-H460 lung = tested on: NCI-H460 lung
# OVCAR-3 ovarian = tested on: OVCAR-3 ovarian
# OVCAR-4 ovarian = tested on: OVCAR-4 ovarian
# OVCAR-5 ovarian = tested on: OVCAR-5 ovarian
# OVCAR-8 ovarian = tested on: OVCAR-8 ovarian
# RPMI-8226 leukemia = tested on: RPMI-8226 leukemia
# RXF 393 renal = tested on: RXF 393 renal
# SF-268 CNS = tested on: SF-268 CNS
# SF-295 CNS = tested on: SF-295 CNS
# SF-539 CNS = tested on: SF-539 CNS
# SK-MEL-2 melanoma = tested on: SK-MEL-2 melanoma
# SK-MEL-28 melanoma = tested on: SK-MEL-28 melanoma
# SK-MEL-5 melanoma = tested on: SK-MEL-5 melanoma
# SK-OV-3 ovarian = tested on: SK-OV-3 ovarian
# SN12C renal = tested on: SN12C renal
# SNB-19 CNS = tested on: SNB-19 CNS
# SNB-75 CNS = tested on: SNB-75 CNS
# SNB-78 CNS = tested on: SNB-78 CNS
# SW-620 colon = tested on: SW-620 colon
# TK-10 renal = tested on: TK-10 renal
# U251 CNS = tested on: U251 CNS
# UACC-257 melanoma = tested on: UACC-257 melanoma
# UACC-62 melanoma = tested on: UACC-62 melanoma
# UO-31 renal = tested on: UO-31 renal
# XF 498 CNS = tested on: XF 498 CNS
smiles,measurement,setting,value
[C-]#[O+].[C-]#[O+].[C-]#[O+].[C-]#[O+].[O-]C(c1ccccc1[PH+]1OC(C(F)(F)F)(C(F)(F)F)c2ccccc21)(C(F)(F)F)C(F)(F)F.[Re] (stereo unspecified),GI50,786-0 renal,4.26 µM
same,TGI,786-0 renal,15.3 µM
same,GI50,A498 renal,2.5 µM
same,TGI,A498 renal,8.19 µM
same,GI50,A549 NSCLC,4.56 µM
same,TGI,A549 NSCLC,19.2 µM
same,GI50,ACHN renal,3.75 µM
same,TGI,ACHN renal,12.9 µM
same,GI50,CAKI-1 renal,5.45 µM
same,TGI,CAKI-1 renal,20.8 µM
same,GI50,CCRF-CEM leukemia,2.39 µM
same,TGI,CCRF-CEM leukemia,5.83 µM
same,GI50,COLO 205 colon,2.32 µM
same,TGI,COLO 205 colon,5.74 µM
same,GI50,DLD-1 colon,5.1 µM
same,TGI,DLD-1 colon,21.1 µM
same,GI50,DMS 114 small cell lung,2.78 µM
same,TGI,DMS 114 small cell lung,8.82 µM
same,GI50,DMS 273 small cell lung,2.93 µM
same,TGI,DMS 273 small cell lung,9.78 µM
same,GI50,EKVX NSCLC,7.51 µM
same,TGI,EKVX NSCLC,25.4 µM
same,GI50,HCC-2998 colon,5.11 µM
same,TGI,HCC-2998 colon,18.3 µM
same,GI50,HCT-15 colon,5.72 µM
same,TGI,HCT-15 colon,20.6 µM
same,GI50,HL-60(TB) leukemia,2.81 µM
same,TGI,HL-60(TB) leukemia,11.4 µM
same,GI50,HOP-18 NSCLC,7.89 µM
same,TGI,HOP-18 NSCLC,21.1 µM
same,GI50,HOP-62 NSCLC,7.54 µM
same,TGI,HOP-62 NSCLC,24 µM
same,GI50,HT29 colon,3.6 µM
same,TGI,HT29 colon,12.2 µM
same,GI50,IGROV1 ovarian,3.46 µM
same,TGI,IGROV1 ovarian,14.8 µM
same,GI50,K-562 leukemia,2.69 µM
same,TGI,K-562 leukemia,11.1 µM
same,GI50,KM12 colon,3.9 µM
same,TGI,KM12 colon,12.5 µM
same,GI50,KM20L2 colon,2.2 µM
same,TGI,KM20L2 colon,13.7 µM
same,GI50,LOX IMVI melanoma,2.59 µM
same,TGI,LOX IMVI melanoma,6.2 µM
same,GI50,LXFL 529 NSCLC,2.01 µM
same,TGI,LXFL 529 NSCLC,4.26 µM
same,GI50,M14 melanoma,1.99 µM
same,TGI,M14 melanoma,4.01 µM
same,GI50,M19-MEL melanoma,3.59 µM
same,TGI,M19-MEL melanoma,14.4 µM
same,GI50,MALME-3M melanoma,2.33 µM
same,TGI,MALME-3M melanoma,5.07 µM
same,GI50,MOLT-4 leukemia,2.5 µM
same,TGI,MOLT-4 leukemia,6.39 µM
same,GI50,NCI-H23 lung,2.36 µM
same,TGI,NCI-H23 lung,5.25 µM
same,GI50,NCI-H460 lung,2.92 µM
same,TGI,NCI-H460 lung,8.97 µM
same,GI50,OVCAR-3 ovarian,2.77 µM
same,TGI,OVCAR-3 ovarian,7.58 µM
same,GI50,OVCAR-4 ovarian,2.88 µM
same,TGI,OVCAR-4 ovarian,8.53 µM
same,GI50,OVCAR-5 ovarian,5 µM
same,TGI,OVCAR-5 ovarian,18.6 µM
same,GI50,OVCAR-8 ovarian,3.65 µM
same,TGI,OVCAR-8 ovarian,15.6 µM
same,GI50,RPMI-8226 leukemia,2.89 µM
same,TGI,RPMI-8226 leukemia,12.5 µM
same,GI50,RXF 393 renal,1.9 µM
same,TGI,RXF 393 renal,4.04 µM
same,GI50,SF-268 CNS,6.18 µM
same,TGI,SF-268 CNS,23.5 µM
same,GI50,SF-295 CNS,4.97 µM
same,TGI,SF-295 CNS,18.3 µM
same,GI50,SF-539 CNS,2.85 µM
same,TGI,SF-539 CNS,8.68 µM
same,GI50,SK-MEL-2 melanoma,4.88 µM
same,TGI,SK-MEL-2 melanoma,18.2 µM
same,GI50,SK-MEL-28 melanoma,2.56 µM
same,TGI,SK-MEL-28 melanoma,6.8 µM
same,GI50,SK-MEL-5 melanoma,6.33 µM
same,TGI,SK-MEL-5 melanoma,20.6 µM
same,GI50,SK-OV-3 ovarian,14.7 µM
same,TGI,SK-OV-3 ovarian,30.2 µM
same,GI50,SN12C renal,3.63 µM
same,TGI,SN12C renal,13.4 µM
same,GI50,SNB-19 CNS,11.5 µM
same,TGI,SNB-19 CNS,33.5 µM
same,GI50,SNB-75 CNS,4.65 µM
same,TGI,SNB-75 CNS,15.6 µM
same,GI50,SNB-78 CNS,3.7 µM
same,TGI,SNB-78 CNS,19.5 µM
same,GI50,SW-620 colon,3.87 µM
same,TGI,SW-620 colon,13.5 µM
same,GI50,TK-10 renal,7.26 µM
same,TGI,TK-10 renal,21.7 µM
same,GI50,U251 CNS,3.05 µM
same,TGI,U251 CNS,14.1 µM
same,GI50,UACC-257 melanoma,2.26 µM
same,TGI,UACC-257 melanoma,4.28 µM
same,GI50,UACC-62 melanoma,2.12 µM
same,TGI,UACC-62 melanoma,4.92 µM
same,GI50,UO-31 renal,2.58 µM
same,TGI,UO-31 renal,7.02 µM
same,GI50,XF 498 CNS,2.96 µM
same,TGI,XF 498 CNS,10.3 µM
